Columns and labels:
human HDAC6 (hHDAC6) = biological target: T1, human HDAC6 (hHDAC6) (Homo sapiens, UniProt Q9UBN7); assay: In vitro human HDAC6 assay (ZMAL substrate); format: biochemical; conditions: for SI 1/6: Selectivity Index = (hHDAC1 IC50)/(hHDAC6 IC50)
T1 construct: purchased BPS Bioscience Inc. 50006
T1 sequence (Q9UBN7 1-1215): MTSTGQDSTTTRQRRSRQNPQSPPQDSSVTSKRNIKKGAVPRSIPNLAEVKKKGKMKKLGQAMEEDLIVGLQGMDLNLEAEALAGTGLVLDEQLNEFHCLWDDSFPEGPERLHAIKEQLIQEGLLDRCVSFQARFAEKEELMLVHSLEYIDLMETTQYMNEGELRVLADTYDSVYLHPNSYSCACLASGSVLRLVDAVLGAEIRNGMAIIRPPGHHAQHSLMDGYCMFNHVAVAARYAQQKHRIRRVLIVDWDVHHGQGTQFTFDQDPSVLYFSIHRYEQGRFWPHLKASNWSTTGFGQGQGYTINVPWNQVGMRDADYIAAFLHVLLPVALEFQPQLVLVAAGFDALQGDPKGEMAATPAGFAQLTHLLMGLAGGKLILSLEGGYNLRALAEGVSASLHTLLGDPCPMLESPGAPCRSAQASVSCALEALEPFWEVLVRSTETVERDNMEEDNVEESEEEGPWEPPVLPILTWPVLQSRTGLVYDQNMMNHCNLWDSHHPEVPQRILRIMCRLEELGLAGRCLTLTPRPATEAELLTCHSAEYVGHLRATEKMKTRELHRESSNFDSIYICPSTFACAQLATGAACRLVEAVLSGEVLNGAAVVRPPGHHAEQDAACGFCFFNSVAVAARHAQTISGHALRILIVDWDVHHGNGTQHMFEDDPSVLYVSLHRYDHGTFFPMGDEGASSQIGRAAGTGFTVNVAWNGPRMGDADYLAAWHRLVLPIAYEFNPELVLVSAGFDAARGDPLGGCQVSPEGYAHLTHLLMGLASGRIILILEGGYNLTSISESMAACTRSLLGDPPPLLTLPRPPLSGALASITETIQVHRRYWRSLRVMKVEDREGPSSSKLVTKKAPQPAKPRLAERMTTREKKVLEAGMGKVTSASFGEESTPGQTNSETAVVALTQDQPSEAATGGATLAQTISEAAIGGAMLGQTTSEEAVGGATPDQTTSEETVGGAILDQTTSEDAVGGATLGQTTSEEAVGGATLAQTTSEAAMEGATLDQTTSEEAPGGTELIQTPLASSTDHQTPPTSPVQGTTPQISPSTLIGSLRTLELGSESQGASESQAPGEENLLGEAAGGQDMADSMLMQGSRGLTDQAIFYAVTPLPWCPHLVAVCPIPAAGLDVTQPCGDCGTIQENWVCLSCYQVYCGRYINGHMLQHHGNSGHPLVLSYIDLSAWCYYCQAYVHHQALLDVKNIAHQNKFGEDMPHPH
Description: (§1) OptiPlate-96 black microplates (Perkin Elmer Inc., Waltham, MA, USA) were used with an assay volume of 50 µL. […] After an incubation time of 90 min, 50 µL of 0.4 mg/mL trypsin in trypsin buffer (50 mM Tris-HCl, pH 8.0, and 100 mM NaCl) was added, followed by further incubation at 37 °C for 30 min.

human HDAC1 (hHDAC1) = biological target: T2, human HDAC1 (hHDAC1) (Homo sapiens, UniProt Q13547); assay: In vitro human HDAC1 assay (ZMAL substrate); format: biochemical
T2 construct: purchased BPS Bioscience Inc. 50051
Description: as §1

MOLM13 cells = assay: CellTiter-Glo cell viability assay, MOLM13; format: cell-based, human; conditions: Homo sapiens, MOLM-13; AML; 72 h, CellTiter-Glo, n = 3
Description: (§2) Healthy individually-derived fibroblasts were cultured in DMEM supplemented with 10% FCS. Regular cell line authentication was performed short tandem repeat (STR) analysis (DNA fingerprinting), followed by comparison with the original DSMZ cell line database.
(§3) Cell viability assay was performed with leukemic cell lines after 72 h incubation with the respective inhibitors using ATP-based CellTiter-Glo luminescent assay (Promega, Madison, WI, USA).

HL60 cells = assay: CellTiter-Glo cell viability assay, HL60; format: cell-based, human; conditions: Homo sapiens, HL-60; AML; 72 h, CellTiter-Glo, n = 3
Description: as §2, §3

A2780 cells = assay: MTT cell viability assay; format: cell-based; conditions: Homo sapiens, 72 h, n ≥ 3 in triplicate, mean ± SD
Description: Reagents were obtained from PAN Biotech, Aidenbach Germany. The cell line was cultured at 37 °C under humidified air with 5% CO2 to a confluence of 80–90% before being used for further assays.
Intrinsic cytotoxicity of test compounds was determined by an MTT assay as previously described. A2780 cells were seeded in 96-well plates (Starlab GmbH, Hamburg, Germany) at a density of 20,000 cells/well and allowed to attach for 12 h. Cells were then treated with increasing concentrations of the test compounds. After 72 h, MTT (3-(4,5-dimethylthiazol-2-yl)-2,5-diphenyltetrazolium bromide) (BioChemica, Applichem GmbH, Darmstadt, Germany) solution (5 mg/mL in phosphate-buffered saline) was added to determine cell survival. The formazan dye was dissolved in DMSO (Sigma-Aldrich, Darmstadt, Germany) after 1 h. Absorbance was measured at 570 nm and 690 nm in a Multiskan microplate photometer (Thermo Fisher Scientific, Waltham, MA, USA). Concentration-response curves were generated using the four-parameter logistic equation (GraphPad Prism 9.0, San Diego, USA), and mean IC50 values were calculated in triplicates based on at least three different experiments.

HPBALL cells = assay: CellTiter-Glo cell viability assay, HPBALL; format: cell-based, human; conditions: Homo sapiens, HPBALL; T-ALL; 72 h, CellTiter-Glo, n = 3
Description: as §2, §3

NALM6 cells = assay: CellTiter-Glo cell viability assay, NALM6; format: cell-based, human; conditions: Homo sapiens, NALM-6; B-ALL; 72 h, CellTiter-Glo, n = 3
Description: as §2, §3

P. falciparum 3D7 = assay: microbe, parasite or virus in culture; format: cell-based; conditions: Plasmodium falciparum, 3D7, 72 h; asexual blood stages, three days incubation; n ≥ 2 in duplicate, mean ± SD; read-out: Pf3D7 IC50
Description: (§4) [38, 39] […] After three days of incubation at 37 °C, 5% CO2 and 5% O2 plates were frozen until analyzed by HRP2-ELISA. All compounds were evaluated in duplicate in at least two independent experiments. The IC50 was determined by nonlinear regression analysis of log concentration-response curves using the drc-package v3.0.1 [40] of R v4.0.5..

P. falciparum Dd2 = assay: microbe, parasite or virus in culture; format: cell-based; conditions: Plasmodium falciparum, DD2, 72 h, read-out: PfDd2 IC50
Description: as §4

K562 cells = assay: CellTiter-Glo cell viability assay, K562; format: cell-based, human; conditions: Homo sapiens, K562; CML; 72 h, CellTiter-Glo, n = 3
Description: as §2, §3

P. falciparum Dd2 R539T = assay: In vitro P. falciparum growth inhibition assay (HRP2), Dd2 R539T; format: cell-based; conditions: Plasmodium falciparum, DD2, 72 h, read-out: PfDd2 R539T IC50
Description: Antiplasmodial activity of DHA–HDACi hybrids was evaluated against the asexual stages of the laboratory P. falciparum strains (3D7, chloroquine-sensitive strain, and Dd2, chloroquine-resistant strain, and Dd2 R539T (MRA-1255), provided by BEI Resources carrying a kelch13-mutation that conveys partial artemisinin resistance), using the histidine-rich protein 2 (HRP2) assay, as previously described. In brief: 96-well plates were precoated with the tested compounds in a three-fold serial dilution before ring-stage parasites were added in complete culture medium at a hematocrit of 1.5% and a parasitaemia of 0.05%. After three days of incubation at 37 °C, 5% CO2 and 5% O2 plates were frozen until analyzed by HRP2-ELISA. All compounds were evaluated in duplicate in at least two independent experiments. The IC50 was determined by nonlinear regression analysis of log concentration-response curves using the drc-package v3.0.1 [40] of R v4.0.5..

[1] = tested on: five leukemia cell lines (K562, HL60, NALM6, HPBALL, MOLM13); assay: CellTiter-Glo cell viability assay, panel of five leukemia cell lines; format: cell-based, human; conditions: number of the five leukemia cell lines in which DHA is exceeded
Description: as §2, §3

T2 sequence (Q13547 whole entry): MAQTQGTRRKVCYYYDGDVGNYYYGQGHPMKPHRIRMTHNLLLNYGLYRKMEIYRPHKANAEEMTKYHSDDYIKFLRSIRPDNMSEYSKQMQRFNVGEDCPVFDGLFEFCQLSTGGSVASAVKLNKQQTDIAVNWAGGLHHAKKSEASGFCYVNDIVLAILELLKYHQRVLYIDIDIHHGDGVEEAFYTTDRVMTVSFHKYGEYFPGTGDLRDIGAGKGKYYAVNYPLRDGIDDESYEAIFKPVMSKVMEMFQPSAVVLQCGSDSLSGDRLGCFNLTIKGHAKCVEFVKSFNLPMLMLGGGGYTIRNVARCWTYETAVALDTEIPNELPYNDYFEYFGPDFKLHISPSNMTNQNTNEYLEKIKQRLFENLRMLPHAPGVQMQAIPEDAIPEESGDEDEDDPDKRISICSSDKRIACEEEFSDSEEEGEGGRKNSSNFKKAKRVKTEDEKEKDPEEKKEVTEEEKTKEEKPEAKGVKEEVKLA

Row | SMILES | IC50 (human HDAC6 (hHDAC6)) | SI 1/6 (human HDAC6 (hHDAC6)) | IC50 (human HDAC1 (hHDAC1)) | IC50 (MOLM13 cells) | IC50 (HL60 cells) | IC50 (A2780 cells) | IC50 (HPBALL cells) | IC50 (NALM6 cells) | IC50 (P. falciparum 3D7) | IC50 (P. falciparum Dd2) | IC50 (K562 cells) | IC50 (P. falciparum Dd2 R539T) | inhibition at 3.33 µM (human HDAC1 (hHDAC1)) | antiproliferative activity compared to DHA [1]
1 | C[C@H]1[C@@H](Sc2ccc(CC(=O)NO)cc2)O[C@@H]2O[C@@]3(C)CC[C@H]4[C@H](C)CC[C@@H]1[C@@]24OO3 [(α)-7e, N-Hydroxy-2-(4-(((3R,5aS,6R,8aS,9R,10R,12S,12aR)-3,6,9-trimethyldecahydro-12H-3,12-epoxy[1,2]dioxepino[4,3-i]isochromen-10-yl)thio)phenyl)acetamide] | 1100 ± 75 nM | >9 | > 10000 nM | 450 ± 180 nM | 1620 ± 120 nM | 1830 ± 100 nM | 3340 ± 370 nM | 440 ± 10 nM | 3.1 ± 0.7 nM | 1.8 ± 0.8 nM | 770 ± 240 nM |  |  | 
2 | C[C@H]1[C@H](Sc2ccc(CC(=O)NO)cc2)O[C@@H]2O[C@@]3(C)CC[C@H]4[C@H](C)CC[C@@H]1[C@@]24OO3 [(β)-7e, N-Hydroxy-2-(4-(((3R,5aS,6R,8aS,9R,10S,12S,12aR)-3,6,9-trimethyldecahydro-12H-3,12-epoxy[1,2]dioxepino[4,3-i]isochromen-10-yl)thio)phenyl)acetamide] | 1000 ± 130 nM | >10 | > 10000 nM | 640 ± 170 nM |  | 2090 ± 420 nM | 20600 ± 6130 nM | 770 ± 80 nM | 2.6 ± 1.3 nM | 1.6 ± 0.8 nM | 1710 ± 330 nM |  |  | 
3 | C[C@@H]1CC[C@H]2[C@@H](C)C(OCc3ccc(/C=C/C(=O)O)cc3)O[C@@H]3O[C@@]4(C)CC[C@@H]1[C@]32OO4 (stereo partly drawn) [Compound 6a, (E)-3-(4-((((3R,5aS,6R,8aS,9R,12R,12aR)-3,6,9-Trimethyldecahydro-12H-3,12-epoxy[1,2]dioxepino[4,3-i]isochromen-10-yl)oxy)methyl)phenyl)acrylic acid] | > 10000 nM |  | > 10000 nM | 680 ± 90 nM | 2530 ± 560 nM | 3380 ± 210 nM | 23900 ± 4690 nM | 1310 ± 110 nM | 5.9 ± 0.7 nM | 5.8 ± 2.8 nM | 4010 ± 600 nM |  |  | 
4 | C[C@@H]1CC[C@H]2[C@@H](C)C(SCCCCCC(=O)NO)O[C@@H]3O[C@@]4(C)CC[C@@H]1[C@]32OO4 (stereo partly drawn) [Compound 7b, N-Hydroxy-6-(((3R,5aS,6R,8aS,9R,12S,12aR)-3,6,9-trimethyldecahydro-12H-3,12-epoxy[1,2]dioxepino[4,3-i]isochromen-10-yl)thio)hexanamide] | 45 ± 5 nM | 10 | 430 ± 46 nM | 580 ± 190 nM | 2070 ± 30 nM | 1520 ± 50 nM | 2410 ± 380 nM | 260 ± 10 nM | 5.2 ± 0.4 nM | 6.6 ± 2.5 nM | 910 ± 320 nM | 3 ± 1.2 nM |  | 
5 | C[C@H]1[C@H](OCc2ccc(C(=O)NO)cc2)O[C@@H]2O[C@@]3(C)CC[C@H]4[C@H](C)CC[C@@H]1[C@@]24OO3 [Compound 7d, N-Hydroxy-4-((((3R,5aS,6R,8aS,9R,10R,12R,12aR)-3,6,9-trimethyldecahydro-12H-3,12-epoxy[1,2]dioxepino[4,3-i]isochromen-10-yl)oxy)methyl)benzamide] | 14 ± 2 nM | 178 | 2490 ± 240 nM | 390 ± 50 nM | 2410 ± 450 nM | 1310 ± 320 nM | 6810 ± 540 nM | 360 ± 50 nM | 2.8 ± 1.3 nM | 2 ± 0.7 nM | 1000 ± 360 nM | 1.2 ± 0.8 nM |  | 
6 | C[C@@H]1CC[C@H]2[C@@H](C)C(OCc3ccc(/C=C/C(=O)Nc4ccccc4N)cc3)O[C@@H]3O[C@@]4(C)CC[C@@H]1[C@]32OO4 (stereo partly drawn) [Compound 8, (E)-N-(2-Aminophenyl)-3-(4-((((3R,5aS,6R,8aS,9R,12R,12aR)-3,6,9-trimethyldecahydro-12H-3,12-epoxy[1,2]dioxepino[4,3-i]isochromen-10-yl)oxy)methyl)phenyl)acrylamide] | > 10000 nM |  | > 3330 nM | 490 ± 80 nM | 1640 ± 170 nM | 1470 ± 980 nM | 1690 ± 190 nM | 340 ± 30 nM | 2.5 ± 1.4 nM | 2.5 ± 0.14 nM | 690 ± 110 nM |  | 41% | exceeded the antiproliferative potential of DHA in four out of five cell lines

Reference: publication PMC8952208, “Synthesis, Antiplasmodial, and Antileukemia Activity of Dihydroartemisinin–HDAC Inhibitor Hybrids as Multitarget Drugs” (Pharmaceuticals, 2022)
